# In patent publication US10662138B2, “Herbicidal propynyl-phenyl compounds” (Syngenta Participations AG, priority 2014, dated 2020):
# How the values were obtained:
# Format in all cases: in vivo
# Alopecurus myosuroides = test: Glasshouse assay for herbicidal activity, post-emergence, ALOMY; conditions: visual 13 days after application, 100%=total damage; for pest or weed control at 250 g/ha / pest or weed control at 30 g/ha: Alopecurus myosuroides, 312 h, read-out: Percentage phytotoxicity ALOMY
# Procedure: (§1) Seeds of a variety of test plant species were sown in standard soil ** in pots. After cultivation for one day (pre-emergence) or after 8 days cultivation (post-emergence) under controlled conditions in a glasshouse (at 24/16° C., day/night; 14 hours light; 65% humidity), the plants were sprayed with an aqueous spray solution derived from the formulation of the technical active ingredient (the test herbicide) in acetone/water (50:50) solution containing 0.5% Tween 20 (polyoxyethylene sorbitan monolaurate, CAS Reg. No. 9005-64-5). The test plants were then grown on under controlled conditions in a glasshouse (at 24/16° C., day/night; 14 hours light; 65% humidity) and watered twice daily. 13 Days after application of the test herbicide, for pre- and post-emergence, the test was evaluated visually for percentage phytotoxicity to each plant (where 100%=total damage to plant; 0%=no damage to plant). Generally, each test herbicide is only tested on 1 plant per plant species for each application rate tested and for each application timing. The “standard soil” in Biological Example 1 is usually a “sand” or “sandy loam” type of soil. Biological Example 1—Post-Emergence Application—Herbicidal Activity Results (Percentage Phytotoxicity) Dicotyledonous weeds: ABUTH=Abutilon theophrasti; AMARE=Amaranthus retroflexus. Grassy monocotyledonous weeds: SETFA=Setaria faberi; ALOMY=Alopecurus myosuroides; ECHCG=Echinochloa crus-galli; ZEAMX=Zea mays (corn, maize, e.g. volunteer corn).
# Echinochloa crus-galli = test: Glasshouse assay for herbicidal activity, post-emergence, ECHCG; conditions: visual 13 days after application, 100%=total damage; for pest or weed control at 250 g/ha / pest or weed control at 30 g/ha: Echinochloa crus-galli, 312 h, read-out: Percentage phytotoxicity ECHCG
# Procedure: as §1
# Amaranthus retroflexus = test: Glasshouse assay for herbicidal activity, post-emergence, AMARE; conditions: visual 13 days after application, 100%=total damage; for pest or weed control at 250 g/ha / pest or weed control at 30 g/ha: Amaranthus retroflexus, 312 h, read-out: Percentage phytotoxicity AMARE
# Procedure: as §1
# [1] = system: Zea mays (corn, maize, e.g. volunteer corn); test: Glasshouse assay for herbicidal activity, post-emergence, ZEAMX; conditions: visual 13 days after application, 100%=total damage; for pest or weed control at 250 g/ha / pest or weed control at 30 g/ha: Zea mays, 312 h, read-out: Percentage phytotoxicity ZEAMX
# Procedure: as §1
# Setaria faberi = test: Glasshouse assay for herbicidal activity, post-emergence, SETFA; conditions: visual 13 days after application, 100%=total damage; for pest or weed control at 250 g/ha / pest or weed control at 30 g/ha: Setaria faberi, 312 h, read-out: Percentage phytotoxicity SETFA
# Procedure: as §1
# Abutilon theophrasti = test: Glasshouse assay for herbicidal activity, post-emergence, ABUTH; conditions: visual 13 days after application, 100%=total damage; for pest or weed control at 250 g/ha / pest or weed control at 30 g/ha: Abutilon theophrasti, 312 h, read-out: Percentage phytotoxicity ABUTH
# Procedure: as §1
Compound,pest or weed control at 250 g/ha (Alopecurus myosuroides; 250 g/ha) [%],pest or weed control at 250 g/ha (Echinochloa crus-galli; 250 g/ha) [%],pest or weed control at 250 g/ha (Amaranthus retroflexus; 250 g/ha) [%],pest or weed control at 250 g/ha ([1]; 250 g/ha) [%],pest or weed control at 250 g/ha (Setaria faberi; 250 g/ha) [%],pest or weed control at 250 g/ha (Abutilon theophrasti; 250 g/ha) [%],pest or weed control at 30 g/ha (Alopecurus myosuroides) [%],pest or weed control at 30 g/ha (Echinochloa crus-galli) [%],pest or weed control at 30 g/ha (Amaranthus retroflexus) [%],pest or weed control at 30 g/ha [1] [%],pest or weed control at 30 g/ha (Setaria faberi) [%],pest or weed control at 30 g/ha (Abutilon theophrasti) [%],Percentage phytotoxicity ALOMY (Alopecurus myosuroides; 250 g/ha) [%],Percentage phytotoxicity ECHCG (Echinochloa crus-galli; 250 g/ha) [%],Percentage phytotoxicity AMARE (Amaranthus retroflexus; 250 g/ha) [%],Percentage phytotoxicity ZEAMX ([1]; 250 g/ha) [%],Percentage phytotoxicity SETFA (Setaria faberi; 250 g/ha) [%],Percentage phytotoxicity ABUTH (Abutilon theophrasti; 250 g/ha) [%]
C=CC(=O)OC1=C(c2ccc(C#CC)cc2OC)C(=O)C2CCC1C2 (stereo not drawn) [Compound P18],90,100,30,100,90,70,–,–,–,–,–,–,–,–,–,–,–,–
"CC#Cc1ccc(C2C(=O)C3CCC(C3)C2=O)c(OC)c1 (stereo not drawn) [Compound A1, 3-(2-methoxy-4-prop-1-ynyl-phenyl)bicyclo[3.2.1]octane-2,4-dione]",100,100,50,100,100,20,100,100,30,100,90,10,–,–,–,–,–,–
"CC#Cc1cc(OC)c(C2C(=O)C3CCC(C3)C2=O)c(C(F)(F)F)c1 (stereo not drawn) [Compound A3, 3-[2-methoxy-4-prop-1-ynyl-6-(trifluoromethyl)phenyl]bicyclo[3.2.1]octane-2,4-dione]",70,100,0,90,90,0,40,70,0,90,70,0,–,–,–,–,–,–
"CC#Cc1ccc(C2=C(OC(C)=O)C3CCC(C3)C2=O)c(OC)c1 (stereo not drawn) [Compound P1, [3-(2-methoxy-4-prop-1-ynyl-phenyl)-4-oxo-2-bicyclo[3.2.1]oct-2-enyl] acetate]",100,100,20,100,90,10,–,–,–,–,–,–,–,–,–,–,–,–
CC#Cc1ccc(C2=C(OC(=O)c3ccc(F)cc3)C3CCC(C3)C2=O)c(OC)c1 (stereo not drawn) [Compound P5],90,100,30,100,90,50,–,–,–,–,–,–,–,–,–,–,–,–
"4-(2,6-Dimethoxy-4-prop-1-ynyl-phenyl)-2,2,6,6-tetramethyl-tetrahydropyran-3,5-dione [Compound A2]",–,–,–,–,–,–,–,–,–,–,–,–,90,70,0,70,90,10
C=CCOC1=C(c2ccc(C#CC)cc2OC)C(=O)C2CCC1C2 (stereo not drawn) [Compound P3],70,100,10,100,90,0,–,–,–,–,–,–,–,–,–,–,–,–
CC#Cc1ccc(C2C(=O)C3CCC(C3)C2=O)c(OCC(F)(F)F)c1 (stereo not drawn) [Compound A4],30,40,0,60,70,0,10,20,0,30,40,0,–,–,–,–,–,–
CC#Cc1ccc(C2=C(OC(=O)CC)C3CCC(C3)C2=O)c(OC)c1 (stereo not drawn) [Compound P6],90,100,40,100,90,60,–,–,–,–,–,–,–,–,–,–,–,–
CC#Cc1ccc(C2=C(OC(=O)SCC)C3CCC(C3)C2=O)c(OC)c1 (stereo not drawn) [Compound P14],90,100,20,100,100,70,–,–,–,–,–,–,–,–,–,–,–,–
